Data reported in patent US10155727B2, “Pyrazoles” (Janssen Pharmaceuticals, Inc., priority 2014, dated 2018).
pIC50: −log10 of the molar value. Structures can show the parent of a compound that is named as a salt. Where two headings read alike, the source gives them in different places. Each block holds one compound with its values, some of them ahead of it.

Assays:
[1] = molecular target: hERG receptor (Homo sapiens (Human), UniProt Q12809); test: HERGBD: inhibition of specific [3H]-Dofetilide binding to the hERG receptor
hERG receptor, sequence (Q12809 whole entry): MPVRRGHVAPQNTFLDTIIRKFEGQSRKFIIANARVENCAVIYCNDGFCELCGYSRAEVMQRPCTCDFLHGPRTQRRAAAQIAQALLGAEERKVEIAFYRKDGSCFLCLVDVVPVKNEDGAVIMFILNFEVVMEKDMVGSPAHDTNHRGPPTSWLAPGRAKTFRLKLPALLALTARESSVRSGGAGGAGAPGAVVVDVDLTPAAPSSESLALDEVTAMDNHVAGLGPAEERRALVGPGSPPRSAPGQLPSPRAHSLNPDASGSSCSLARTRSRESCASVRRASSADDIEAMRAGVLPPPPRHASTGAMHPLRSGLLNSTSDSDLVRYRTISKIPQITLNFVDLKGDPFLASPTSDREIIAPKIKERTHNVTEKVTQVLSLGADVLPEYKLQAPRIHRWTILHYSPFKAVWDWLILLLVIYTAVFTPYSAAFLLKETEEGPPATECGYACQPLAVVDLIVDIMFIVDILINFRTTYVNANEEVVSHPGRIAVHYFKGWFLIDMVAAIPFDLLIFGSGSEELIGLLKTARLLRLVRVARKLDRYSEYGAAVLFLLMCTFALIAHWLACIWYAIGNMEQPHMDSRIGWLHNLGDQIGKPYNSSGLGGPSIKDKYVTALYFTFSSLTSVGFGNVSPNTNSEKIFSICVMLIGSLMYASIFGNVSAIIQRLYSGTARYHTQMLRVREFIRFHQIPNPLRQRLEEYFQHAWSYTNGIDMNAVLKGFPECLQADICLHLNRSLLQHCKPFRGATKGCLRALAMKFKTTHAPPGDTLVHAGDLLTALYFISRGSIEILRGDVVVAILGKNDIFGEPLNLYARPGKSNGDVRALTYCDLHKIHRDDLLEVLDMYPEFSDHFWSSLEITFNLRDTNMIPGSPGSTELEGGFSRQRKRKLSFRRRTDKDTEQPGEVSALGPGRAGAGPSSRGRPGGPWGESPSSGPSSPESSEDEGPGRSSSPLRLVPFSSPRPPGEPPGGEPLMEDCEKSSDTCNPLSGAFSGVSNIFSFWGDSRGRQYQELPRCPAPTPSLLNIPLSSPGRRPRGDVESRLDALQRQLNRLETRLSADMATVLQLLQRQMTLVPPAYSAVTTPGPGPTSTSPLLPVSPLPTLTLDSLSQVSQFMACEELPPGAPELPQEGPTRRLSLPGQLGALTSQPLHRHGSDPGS
Description: Inhibition of Specific Binding to the hERG—Receptor (HERGBD)
A HEK cell line with stable transfected human ERG receptor was used for the assay. The cells were grown adherently and maintained in DULBECCOS' MEM medium with 10% FBS, 1% non-essential amino acids, 1% Penicillin/Streptomycin and 400 μg/ml G418 (Calbiochem).
For binding assays and membrane preparations the cell culture medium was removed, cells were washed with PBS. Crude membranes for radioligand binding experiments were prepared by scraping the cells off the dishes in ice cold 20 mM HEPES/0.1 mM KCl/pH 7.2. The cell suspension was homogenized on ice (Ultra turrax, 3×20 sec.) and the homogenate was spun for 10 min (1° C., 1000 g, OPTIMA, SW28, 2800 U/min). The supernatant was than centrifuged for 40 min at 100000 g (1° C., OPTIMA, SW28, 23000 U/min). The membrane pellet was re-suspended in 20 mM HEPES/0.1 mM KCl pH 7.2, frozen and stored at −80° C.
After thawing on the day of the assay, the membrane suspension was diluted further with 20 mM HEPES/0.1 mM KCl/pH 7.2.
The incubation mixture of 200 μl contained 1.5 nmol/l 3H-Dofetilide, optimized amount of membrane preparation, 20 mM HEPES/0.1 mM KCl/(pH 7.2) and inhibitor in 1% DMSO. Nonspecific binding was estimated in the presence of […] Dofetilide. The samples were incubated for 90 min. at RT.
Binding was terminated by filtration of the incubated membrane preparations using Filtermat B (Pharmacia, Uppsala Sweden) and a Micro Cell Harvester (Skatron, Lier, Norway). The Filtermat B had been presoaked with 1% polyethylen imine and carefully washed with 0.05 M Tris/HCl-buffer pH=7.7 after the filtration to separate free and bound radioactivity. The filters were counted in a scintillation counter (Betaplate 1205, Berthold, Wildbad, Germany) in order to determine the specific binding of [^3H]-Dofetilide.
The optimal amount of membrane preparation in the assay was determined and optimized for each membrane preparation separately in front of using the membranes in compound testing.
For pipetting of the incubation mixture we routinely use the robot Biomek2000 (Fa. Beckman).

[2] = molecular target: rat NR1/NR2B receptor (Rattus norvegicus (Rat), UniProt P35439+Q00960); test: NR2B binding assay: inhibition of specific [3H]-Ifenprodil binding to the rat NR1/NR2B receptor; conditions: for inhibition at 1 µM: 1 μM test compound, read-out: % INH @ 1 μM; for inhibition at 10 µM: read-out: % INH @ 10 μM
rat NR1/NR2B receptor, sequence (Q00960 27-1482, other chains not shown): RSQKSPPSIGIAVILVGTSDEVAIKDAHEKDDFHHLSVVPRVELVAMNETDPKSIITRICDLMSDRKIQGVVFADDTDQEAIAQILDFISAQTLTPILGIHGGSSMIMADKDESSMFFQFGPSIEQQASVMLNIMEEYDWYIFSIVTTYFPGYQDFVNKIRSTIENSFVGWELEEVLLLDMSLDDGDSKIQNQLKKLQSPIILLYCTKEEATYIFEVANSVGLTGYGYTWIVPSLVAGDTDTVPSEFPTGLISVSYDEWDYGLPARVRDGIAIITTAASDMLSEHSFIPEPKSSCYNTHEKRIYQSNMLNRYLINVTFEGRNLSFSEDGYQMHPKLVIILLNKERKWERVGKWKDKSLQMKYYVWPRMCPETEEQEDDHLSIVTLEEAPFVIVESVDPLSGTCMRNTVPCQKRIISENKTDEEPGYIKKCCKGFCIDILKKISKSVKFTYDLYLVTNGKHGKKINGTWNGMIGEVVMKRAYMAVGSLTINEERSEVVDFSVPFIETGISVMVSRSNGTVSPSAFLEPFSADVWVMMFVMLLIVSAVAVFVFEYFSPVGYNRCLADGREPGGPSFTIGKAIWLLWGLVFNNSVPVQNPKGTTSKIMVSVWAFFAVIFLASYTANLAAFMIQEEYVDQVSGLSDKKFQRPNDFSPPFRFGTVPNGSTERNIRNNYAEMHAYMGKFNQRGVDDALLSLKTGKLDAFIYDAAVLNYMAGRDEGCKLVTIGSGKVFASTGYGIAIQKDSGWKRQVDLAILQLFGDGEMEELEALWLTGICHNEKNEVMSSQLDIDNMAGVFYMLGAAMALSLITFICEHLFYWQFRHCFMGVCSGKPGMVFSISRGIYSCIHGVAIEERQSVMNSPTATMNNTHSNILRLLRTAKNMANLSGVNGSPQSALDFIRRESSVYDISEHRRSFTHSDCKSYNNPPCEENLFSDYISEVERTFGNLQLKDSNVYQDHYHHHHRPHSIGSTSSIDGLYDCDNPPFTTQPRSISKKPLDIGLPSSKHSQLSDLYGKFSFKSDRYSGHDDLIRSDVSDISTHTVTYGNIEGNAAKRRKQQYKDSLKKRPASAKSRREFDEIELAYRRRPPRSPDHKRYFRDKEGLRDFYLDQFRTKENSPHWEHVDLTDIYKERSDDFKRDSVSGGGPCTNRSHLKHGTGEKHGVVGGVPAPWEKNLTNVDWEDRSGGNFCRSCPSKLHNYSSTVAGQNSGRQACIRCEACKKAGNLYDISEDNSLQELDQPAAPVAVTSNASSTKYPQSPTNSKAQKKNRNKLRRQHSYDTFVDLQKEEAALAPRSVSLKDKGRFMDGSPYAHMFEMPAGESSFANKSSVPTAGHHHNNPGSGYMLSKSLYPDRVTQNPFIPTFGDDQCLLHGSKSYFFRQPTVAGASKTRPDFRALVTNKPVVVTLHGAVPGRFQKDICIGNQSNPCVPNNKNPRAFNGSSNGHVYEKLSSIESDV
Description: Biological Assays Inhibition of Specific Binding to the Rat NR1/NR2B Receptor
Male Wistar rats (180 to 200 g) were killed by suffocation in a CO2 chamber for two minutes. Whole brains without cerebellum were removed and dissected on ice, placed into closed vials and stored at −70° C.
Membrane fractions were prepared and tested using standard techniques. At the time of the assay, 1 g of the brains was placed into 25 ml of 50 mM Tris/10 mM EDTA buffer, pH 7.1, (25 vol. per g of original tissue) and homogenized for 30 sec at 20000 rpm with an Ultraturrax T25 (Jahnke & Kunkel, IKA-Labortechnik, Staufen, Germany).
The supernatant was discarded and the pellet was homogenized on ice for 30 sec at 20000 rpm with an Ultraturrax and again centrifuged at 48000 g for 30 minutes at 4° C. The resultant pellet was resuspended in 25 ml of 50 mM Tris/10 mM EDTA buffer, homogenized for 30 sec with an Ultraturrax, aliquoted, frozen at −70° C. and stored until use.
After thawing on the day of the assay, a 5 ml membrane aliquot was centrifuged at 48000 g for 30 min at 4° C. The pellet was resuspended in 5 ml of 5 mM Tris/1 mM EDTA buffer, pH 7.4, homogenized for 30 sec at 20000 rpm with an Ultraturrax and centrifuged at 48000 g for 30 min at 4° C. This was repeated twice. The final pellet was homogenized in 5 ml of 5 mM Tris/1 mM EDTA buffer at 4° C. with an Ultraturrax and used for the Ifenprodil-binding assay as described in the following.
Nonspecific binding was estimated in the presence of […] CP101.606. The samples were incubated for 60 min. at 4° C.
The incubation was terminated by filtration of the membrane preparations using Filtermat B (Pharmacia, Uppsala Sweden) and a Micro Cell Harvester (Skatron, Lier, Norway). The Filtermat B had been presoaked with 1% polyethylene imine and carefully washed with 50 mM Tris/HCl-buffer pH 7.7 after the filtration to separate free and bound radioactivity.
The optimal amount of membrane preparation in the assay was determined and optimized for each membrane preparation separately before the test.
For pipetting of the incubation mixture the robot Biomek2000 (Fa. Beckman) was used.
For determination of IC50 values the Hill-plot, 2-parameter-model was used.

[3] = [3H]-Dofetilide binding, membranes of HEK cells with human ERG receptor, read-out: IC50
[4] = [3H]-Ifenprodil binding, rat brain membranes

SMILES: FC(F)Oc1cccc(-c2cnn(Cc3cc[nH]n3)c2)c1 [Example 94, 3-[[4-(3-(difluoromethoxy)-phenyl)pyrazol-1-yl]methyl]-1H-pyrazole Maleate]
pIC50 [1, 3]: 3.92
pIC50 [2, 4]: 6.55

SMILES: Cn1nccc1-n1cc(-c2ccc(Cl)c(Cl)c2)cn1 [Example 100, 4-(3,4-dichlorophenyl)-2′-methyl-2′H-1,3′-bipyrazole]
pIC50 [1, 3]: 4.22
pIC50 [2, 4]: 5.50

inhibition at 1 µM [2, 4]: 2.7%
SMILES: CCC(CC)n1ccc(Cn2cc(-c3ccc(Cl)c(OC(F)F)c3)cn2)n1 [Example 11, 3-[[4-[4-Chloro-3-(difluoromethoxy)phenyl]pyrazol-1-yl]methyl]-1-(1-ethylpropyl)pyrazole]
pIC50 [1, 3]: 4.90

SMILES: Cn1ccc(Cn2cc(-c3ccc(Cl)cc3Cl)cn2)n1 [Example 66, 3-[[4-(2,4-dichlorophenyl)pyrazol-1-yl]methyl]-1-methyl-pyrazole Succinate]
pIC50 [1]: 5.05
pIC50 [2, 4]: 5.28

SMILES: Cc1cc(Cn2cc(-c3ccc(Cl)c(OC(F)F)c3)cn2)[nH]n1 [Example 13, 4-[4-Chloro-3-(difluoromethoxy)phenyl]-1-[(3-methyl-1H-pyrazol-5-yl)methyl]pyrazole]
pIC50 [1]: 4.43
pIC50 [2, 4]: 7.66

SMILES: Cc1cc(-c2cnn(Cc3cc[nH]n3)c2)ccc1F [Example 56, 4-(4-fluoro-3-methyl-phenyl)-1-(1H-pyrazol-3-ylmethyl)pyrazole]
pIC50 [1]: 4.03
pIC50 [2, 4]: 7.10

SMILES: Cc1n[nH]c(C)c1Cn1cc(-c2ccc(F)c(C(F)F)c2)cn1 [Example 89, 4-[[4-(3-difluoromethyl-4-fluoro-phenyl)pyrazol-1-yl]methyl]-3,5-dimethyl-1H-pyrazole]
pIC50 [1]: 4.05
pIC50 [2, 4]: 6.13

inhibition at 1 µM [2, 4]: 15.1%
inhibition at 10 µM ([2]; 10 μM test compound, [3H]-Ifenprodil binding, rat brain membranes): 16%
SMILES: COc1cc(F)ccc1-c1cnn(Cc2ccn(C)n2)c1 [Example 67, 3-[[4-(4-fluoro-2-methoxy-phenyl)pyrazol-1-yl]methyl]-1-methyl-pyrazole Succinate]
pIC50 [1, 3]: 4.20

SMILES: Fc1cc(-c2cnn(Cc3cc[nH]n3)c2)cc(C(F)F)c1 [Example 47, 4-[3-(difluoromethyl)-5-fluoro-phenyl]-1-(1H-pyrazol-3-ylmethyl) pyrazole Succinate]
pIC50 [1]: < 4.00
pIC50 [2, 4]: 6.69

inhibition at 1 µM [2, 4]: 23.3%
SMILES: Clc1ccc(-c2cnn(Cc3cn4ccccc4n3)c2)cc1 [Example 102, 2-((4-(4-chlorophenyl)-1H-pyrazol-1-yl)methyl)imidazo[1,2-a]pyridine]
pIC50 [1]: 4.99

SMILES: CC(F)(F)c1cccc(-c2cnn(Cc3cc[nH]n3)c2)c1 [Example 93, 3-[[4-(3-(1,1-difluoroethyl)-phenyl)pyrazol-1-yl]methyl]-1H-pyrazole Maleate]
pIC50 [1, 3]: 3.89
pIC50 [2, 4]: 7.60

SMILES: Cn1cc(Cn2cc(-c3ccc(F)c(C(F)F)c3)cn2)cn1 [Example 33, 4-[3-(Difluoromethyl)-4-fluoro-phenyl]-1-[(1-methylpyrazol-4-yl)methyl]pyrazole]
pIC50 [1]: < 4.00
pIC50 [2, 4]: 6.43

SMILES: Cn1ccc(Cn2cc(-c3cccc(OC(F)(F)F)c3)cn2)n1 [Example 23, 1-Methyl-3-[[4-[3-(trifluoromethoxy)phenyl]pyrazol-1-yl]methyl]pyrazole Succinate]
pIC50 [1]: 5.03
pIC50 [2, 4]: 5.80

SMILES: Cn1ccc(Cn2cc(-c3ccccn3)cn2)n1 [Example 104, 2-(1-((1-methyl-1H-pyrazol-3-yl)methyl)-1H-pyrazol-4-yl)pyridine Succinate]
pIC50 [1, 3]: < 4.00
inhibition at 1 µM [2, 4]: 20.9%
inhibition at 10 µM [2]: -0.6%

SMILES: Cc1cc(Cn2cc(-c3ccc(Cl)c(C(F)F)c3)cn2)n(C)n1 [Example 25, 5-[[4-[4-Chloro-3-(difluoromethyl)phenyl]pyrazol-1-yl]methyl]-1,3-dimethyl-pyrazole]
pIC50 [1, 3]: 4.30
pIC50 [2, 4]: 6.01

SMILES: Cn1cc(Cn2cc(-c3ccc(Cl)cc3)cn2)cn1 [Example 78, 4-(4-Chlorophenyl)-1-[(1-methylpyrazol-4-yl)methyl]pyrazole]
pIC50 [1]: < 4.00
pIC50 [2, 4]: 5.08

SMILES: Cc1cc(Cn2cc(-c3cccc(C(F)(F)F)c3)cn2)n(C)n1 [Example 48, 1,3-dimethyl-5-[[4-[3-(trifluoromethyl)phenyl]pyrazol-1-yl]methyl]pyrazole]
pIC50 [1]: 4.43
pIC50 [2, 4]: 5.71

SMILES: CCn1cncc1Cn1cc(-c2ccc(Cl)cc2)cn1 [Example 98, 4-(4-chlorophenyl)-1-((1-ethyl-1H-imidazol-5-yl)methyl)-1H-pyrazole]
pIC50 [1]: 5.45
pIC50 [2, 4]: 5.97

SMILES: c1cc(-c2cnn(Cc3cc[nH]n3)c2)cc(C2CC2)c1 [Example 69, 4-(3-cyclopropylphenyl)-1-(1H-pyrazol-3-ylmethyl)pyrazole Succinate]
pIC50 [1]: < 4.00
pIC50 [2, 4]: 6.08

SMILES: Cn1ccc(Cn2cc(-c3ccc(F)c(Cl)c3)cn2)n1 [Example 61, 3-[[4-(3-chloro-4-fluoro-phenyl)pyrazol-1-yl]methyl]-1-methyl-pyrazole Succinate]
pIC50 [1]: 4.61
pIC50 [2, 4]: 5.86

SMILES: Cc1cc(Cn2cc(-c3ccc(F)c(Cl)c3)cn2)n(C)n1 [Example 62, 5-[[4-(3-chloro-4-fluoro-phenyl)pyrazol-1-yl]methyl]-1,3-dimethyl-pyrazole]
pIC50 [1]: 4.38
pIC50 [2, 4]: 6.07

SMILES: Cn1nccc1-n1cc(-c2ccc(F)c(Cl)c2)cn1 [Example 101, 4-(3-chloro-4-fluorophenyl)-2′-methyl-2′H-1,3′-bipyrazole]
pIC50 [1]: 3.93
pIC50 [2, 4]: 5.25

SMILES: Cn1cc(Cn2cc(-c3ccc(F)c(C(C)(F)F)c3)cn2)cn1 [Example 45, 4-[3-(1,1-difluoroethyl)-4-fluoro-phenyl]-1-[(1-methylpyrazol-4-yl)methyl]pyrazole Succinate]
pIC50 [1]: 4.17
pIC50 [2, 4]: 6.58

SMILES: Cc1cc(-c2cnn(Cc3ccn(C)n3)c2)ccc1F [Example 55, 3-[[4-(4-fluoro-3-methyl-phenyl)pyrazol-1-yl]methyl]-1-methyl-pyrazole Succinate]
pIC50 [1]: 4.68
pIC50 [2, 4]: 6.06

SMILES: Cc1cc(-c2cnn(Cc3ccn(C)n3)c2)ccc1Cl [Example 58, 3-[[4-(4-chloro-3-methyl-phenyl)pyrazol-1-yl]methyl]-1-methyl-pyrazole Succinate]
pIC50 [1, 3]: 4.90
pIC50 [2, 4]: 6.18

SMILES: CCn1ccc(Cn2cc(-c3ccc(Cl)c(OC(F)F)c3)cn2)n1 [Example 8, 3-[[4-[4-Chloro-3-(difluoromethoxy)phenyl]pyrazol-1-yl]methyl]-1-ethyl-pyrazole]
pIC50 [1]: 4.39
pIC50 [2, 4]: 6.55

SMILES: Clc1ccc(-c2cnn(Cc3cc[nH]n3)c2)cc1 [Example 77, 4-(4-Chlorophenyl)-1-(1H-pyrazol-3-ylmethyl)pyrazole]
pIC50 [1]: 4.77
pIC50 [2, 4]: 5.98

SMILES: CS(=O)(=O)c1cccc(-c2cnn(Cc3cc[nH]n3)c2)c1 [Example 70, 4-(3-methylsulfonylphenyl)-1-(1H-pyrazol-3-ylmethyl)pyrazole Succinate]
pIC50 [1]: < 4.00
pIC50 [2, 4]: 5.57
